Assay results: patent US8575349B2, “Derivatives of 1-alkyl-6-oxo-piperidine-3-carboxylic acids and 1-alkyl-5-oxo-pyrrolidine-3-carboxylic acids and their uses as cooling compounds” (International Flavors & Fragrances Inc., priority 2010, dated 2013)

How the values were obtained:
Assay type in all cases: in vivo
[1] = Taste evaluation of the compound in water (cooling effect)
[2] = Chewing gum containing the compound: cooling/taste profile over time; details: for Profile: gum; for overall effect of test gum versus control gum: orange-flavored gum
Protocol: The above formulation was prepared in a Sigma mixer. The resultant chewing gum blend was manufactured into strips of 1 inch in width and 0.1 inches in thickness. The strips were subsequently cut into a length of 3 inches each. […] A test gum was further prepared by adding 1-(2-isopropyl-5-methyl-cyclohexyl)-4-(pyrrolidine-1-carbonyl)-pyrrolidin-2-one (Structure VI, 800 ppm) or 1-(2-isopropyl-5-methyl-cyclohexyl)-4-(piperidine-1-carbonyl)-pyrrolidin-2-one (Structure VII, 1200 ppm).

[3] = Hard candy containing the compound: cooling/taste profile over time; details: 300 ppm; for overall effect of test candy versus control candy: cherry flavored hard candy; for Profile: hard candy
Protocol: First, the following formulation was prepared: […]
The above formulation was added to a stainless steel pot. With constant mixing, the formulation temperature was raised to 138° C. The pot was then removed from the heat, allowing cool to 120° C. and 0.7 g of flavor containing the ingredients in equal amounts: benzaldehyde, tolyl aldehyde, ethyl acetate, maltol, Davana oil, methyl heptinyl carbonate and 3 g of citric acid was added. The resulting cherry flavored liquid candy was then deposited into molds, and the molds containing the liquid candy were cooled to room temperature, yielding 600 g of finished hard candy. […] A test candy was further prepared using the above recipe modified by adding 0.18 g of 1-(2-isopropyl-5-methyl-cyclohexyl)-4-(pyrrolidine-1-carbonyl)-pyrrolidin-2-one (Structure VI, 300 ppm) or 1-(2-isopropyl-5-methyl-cyclohexyl)-4-(piperidine-1-carbonyl)-pyrrolidin-2-one (Structure VII, 300 ppm).

With `COC(=O)C1CC(=O)N(C2CC(C)CCC2C(C)C)C1` (stereo not shown) [Structure I, 1-(2-isopropyl-5-methyl-cyclohexyl)-5-oxo-pyrrolidine-3-carboxylic acid methyl ester] the “taste description / cooling effect” value ([1]; 10 ppm in water) was “mild cooling effect”.
With `CC1CCC(C(C)C)C(N2CC(C(=O)O)CC2=O)C1` (stereo not shown) [Structure II, 1-(2-isopropyl-5-methyl-cyclohexyl)-5-oxo-pyrrolidine-3-carboxylic acid] the “taste description / cooling effect” value ([1]; 10 ppm in water) was “some cooling effect developed in the back of throat”.
For `CC(C)CNC(=O)C1CC(=O)N(C2CC(C)CCC2C(C)C)C1` (stereo not shown) [Structure III, 1-(2-isopropyl-5-methyl-cyclohexyl)-5-oxo-pyrrolidine-3-carboxylic acid isobutyl-amide], the “taste description / cooling effect” value ([1]; 10 ppm in water) was “mild cooling effect”.
In the case of `CCN(C)C(=O)C1CC(=O)N(C2CC(C)CCC2C(C)C)C1` (stereo not shown) [Structure IV, 1-(2-isopropyl-5-methyl-cyclohexyl)-5-oxo-pyrrolidine-3-carboxylic acid ethyl-methyl-amide], the “taste description / cooling effect” value ([1]; 10 ppm in water) is reported as “mild cooling effect”.
In the case of `COC(=O)C1CC(=O)N(C2CCCCC2C)C1` (stereo not shown) [Structure IX, 1-(2-methyl-cyclohexyl)-5-oxo-pyrrolidine-3-carboxylic acid methyl ester], the “taste description / cooling effect” value ([1]; 40 ppm in water) is reported as “slight upfront bitterness for ˜20-30 seconds and mild cooling effect that slightly built up in a few minutes”.
With `CC1CCC(C(C)C)C(N2CC(C(=O)N3CCC3)CC2=O)C1` (stereo not shown) [Structure V, 4-(azetidine-1-carbonyl)-1-(2-isopropyl-5-methyl-cyclohexyl)-pyrrolidin-2-one] the “taste description / cooling effect” value ([1]; 40 ppm in water) was “mild cooling, earthy, off-flavor, not bitter, napthalene, herbaceous, slight tingle effect on the tip of tongue, and garden hose, carrot, astringent, and waxy effect”.
In the case of `CC1CCC(C(C)C)C(N2CC(C(=O)N3CCCC3)CC2=O)C1` (stereo not shown) [Structure VI, 1-(2-isopropyl-5-methyl-cyclohexyl)-4-(pyrrolidine-1-carbonyl)-pyrrolidin-2-one], the Profile ([2]; 800 ppm, at 1-3 minutes) is reported as “At 1-3 minutes: cooling delocalized on the tongue;”, the Profile ([2]; 800 ppm, at 3-5 minutes) is reported as “At 3-5 minutes: mild cooling located on the tongue;” and the Profile ([2]; 800 ppm, at 5-10 minutes) is reported as “At 5-10 minutes: moderate cooling on the tongue and the roof”. The Profile ([2]; 800 ppm, at 20-30 minutes) was “At 20-30 minutes: clean sensation with a little bitterness”, the “overall effect of test gum versus control gum” value ([2]; 800 ppm) was “pleasant cooling effect” and the “overall effect of test candy versus control candy” value [3] was “substantial cooling effect”. For the same molecule, the Profile ([3]; at 0-1 minute) was “At 0-1 minute: cooling with slight bitterness;”, the Profile ([3]; at 1-3 minutes) was “At 1-3 minutes: cooling built up;” and the Profile ([3]; at 3-5 minutes) was “At 3-5 minutes: cooling on the roof of mouth;”. The Profile ([3]; at 5-10 minutes) was “At 5-10 minutes: cooling with some bitterness;”, the Profile ([3]; at 10-20 minutes) was “At 10-20 minutes: cooling with mild bitterness;” and the Profile ([3]; at 20-30 minutes) was “At 20-30 minutes: cooling remained”. The “taste description / cooling effect” value ([1]; 10 ppm in water) was “mild cooling effect with slight bitterness, the cooling effect built up over the time” and the “taste description / cooling effect” value ([1]; 50 ppm in water) was “cooling effect with bitterness, a menthol-like burning taste, and a nice built-up cooling taste”.
In the case of `CC1CCC(C(C)C)C(N2CC(C(=O)N3CCCCC3)CC2=O)C1` (stereo not shown) [Structure VII, 1-(2-isopropyl-5-methyl-cyclohexyl)-4-(piperidine-1-carbonyl)-pyrrolidin-2-one], the Profile ([2]; 1200 ppm, at 0-1 minute) is reported as “At 0-1 minute: cooling onset, throat and slight tongue irritation,”, the Profile ([2]; 1200 ppm, at 1-3 minutes) is reported as “At 1-3 minutes: cooling and irritation delocalized with some” and the Profile ([2]; 1200 ppm, at 3-5 minutes) is reported as “At 3-5 minutes: full mouth cooling, throughout mouth but not”. The Profile ([2]; 1200 ppm, at 5-10 minutes) was “At 5-10 minutes: strong cooling in mouth, concentrated in the”, the Profile ([2]; 1200 ppm, at 10-20 minutes) was “At 10-20 minutes: cooling peaked, consistent without any” and the Profile ([2]; 1200 ppm, at 20-30 minutes) was “At 20-30 minutes: strong cooling in mouth and throat,”. For the same molecule, the “overall effect of test gum versus control gum” value ([2]; 1200 ppm) was “pleasant cooling effect”, the “overall effect of test candy versus control candy” value [3] was “substantial cooling effect” and the Profile ([3]; at 0-1 minute) was “At 0-1 minute: bitterness;”. The Profile ([3]; at 1-3 minutes) was “At 1-3 minutes: cooling breath, strong cooling;”, the Profile ([3]; at 3-5 minutes) was “At 3-5 minutes: intense cooling;” and the Profile ([3]; at 5-10 minutes) was “At 5-10 minutes: intense cooling throughout mouth;”. For the same molecule, the Profile ([3]; at 10-20 minutes) was “At 10-20 minutes: very strong cooling, almost burning;”, the Profile ([3]; at 20-30 minutes) was “At 20-30 minutes: strong and lasting cooling” and the “taste description / cooling effect” value ([1]; 40 ppm in water) was “slight upfront bitterness, herbaceous flavor, and built-up cooling effect”.
For `CC1CCC(C(C)C)C(N2CC(C(=O)N3CCCCCC3)CC2=O)C1` (stereo not shown) [Structure VIII, 4-(azepane-1-carbonyl)-1-(2-isopropyl-5-methyl-cyclohexyl)-pyrrolidin-2-one], the “taste description / cooling effect” value ([1]; 40 ppm in water) was “bitterness and cooling effect and both built up”.
For `CC(C)(C)C1CCCCC1N1CC(C(=O)N2CCCC2)CC1=O` (stereo not shown) [Structure X, 1-(2-tert-butyl-cyclohexyl)-4-(pyrrolidine-1-carbonyl)-pyrrolidin-2-one], the “taste description / cooling effect” value ([1]; 40 ppm in water) was “upfront bitterness, quinine, drying, greasy, and burning effect”.
For `CC(C)(C)C1CCCCC1N1CC(C(=O)N2CCCCC2)CC1=O` (stereo not shown) [Structure XI, 1-(2-tert-butyl-cyclohexyl)-4-(piperidine-1-carbonyl)-pyrrolidin-2-one], the “taste description / cooling effect” value ([1]; 40 ppm in water) was “some bitterness and drying, powdery, and minimal cooling effect”.
For `CC1CCC(C(C)C)C(N2CC(C(=O)N3CCCC3)CCC2=O)C1` (stereo not shown) [Structure XII, 1-(2-isopropyl-5-methyl-cyclohexyl)-5-(pyrrolidine-1-carbonyl)-piperidin-2-one], the “taste description / cooling effect” value ([1]; 40 ppm in water) was “slight cooling, and bitter and drying effect”.
For `CC1CCC(C(C)C)C(N2CC(C(=O)N3CCCCC3)CCC2=O)C1` (stereo not shown) [Structure XIII, 1-(2-isopropyl-5-methyl-cyclohexyl)-5-(piperidine-1-carbonyl)-piperidin-2-one], the “taste description / cooling effect” value ([1]; 40 ppm in water) was “grapefruit-like bitterness, and very mild cooling and drying effect”.
